From patent publication US20090270450A1, “CHEMICAL COMPOUNDS” (ASTRAZENECA AB, priority 2006, published 2009)
Where a name gives a salt, the structure may show the parent alone.

What was measured:
[1] = molecular target: T1, His-tagged kinase domain of CSF-1R (amino acids 568-912) (Homo sapiens, UniProt P07333); test: Assay 1: CSF-1R in vitro AlphaScreen assay; type: biochemical; settings: phosphorylation of biotinylated pEY substrate; 0.57 nM CSF-1R, 90 μM ATP
T1 construct: The His-tagged kinase domain of CSF-1R (i.e., amino acids 568-912, GeneBank ID NM_005211); His; made in house; host or cells: baculovirus infected SF+Express insect cells
T1 sequence (P07333 568-912): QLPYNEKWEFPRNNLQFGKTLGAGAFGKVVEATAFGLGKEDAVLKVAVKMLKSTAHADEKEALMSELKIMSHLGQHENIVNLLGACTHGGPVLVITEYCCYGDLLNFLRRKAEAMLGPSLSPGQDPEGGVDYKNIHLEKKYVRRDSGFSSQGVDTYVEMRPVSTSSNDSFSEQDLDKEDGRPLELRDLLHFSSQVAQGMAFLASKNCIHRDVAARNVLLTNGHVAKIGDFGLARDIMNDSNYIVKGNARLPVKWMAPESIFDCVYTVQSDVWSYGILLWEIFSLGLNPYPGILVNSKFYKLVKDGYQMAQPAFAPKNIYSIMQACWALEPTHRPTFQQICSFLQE
Procedure: Assay 1: CSF-1R in Vitro AlphaScreen Assay
Activity of purified CSF-1R was determined in vitro using an Amplified Luminescent Proximity Homogeneous Assay (ALPHA)(Perkin Elmer), which measures phosphorylation of the CSF-1R substrate, biotinylated poly-glutamine-tyrosine peptide (PEY-HTRF CisBio 61GT0BLD), as described below. The His-tagged kinase domain of CSF-1R (i.e., amino acids 568-912, GeneBank ID NM_005211; (see page 25 lines 13-19 of WO 2006/067445 for the sequence listing)) was purified from baculovirus infected SF+Express insect cells (1.4×10^6 cells/ml), French pressed and chromatographed through subsequent Qiagen Ni-NTA, Superflow Mono Q HR 10/10, and Superdex 200 SEC columns. Typical yield was 245 μg/l of cell pellet at >95% purity.
The phosphorylation of the CSF-1R substrate in the presence and absence of the compound of interest was determined. Briefly, 0.57 nM of purified CSF-1R, 5 nM pEY substrate, and compound were preincubated in 1× buffer for 30 minutes at 25° C. Reactions were initiated with addition of 90 μM adenosine triphosphate (ATP) in 1× buffer and incubated at 25° C. for 60 minutes and reactions stopped by addition of 5 μl of detection mix consisting of 136 mM NaCl, 102 mM ethylenediamine tetraacetic acid, 1.65 mg/ml BSA, 40 ug/ml Streptavidin donor beads (Perkin Elmer 6760002), 40 ug/ml pTyr100 acceptor beads (Perkin Elmer 6760620). Plates were incubated at 25° C. for 18 hours in the dark. Phosphorylated substrate was detected by an EnVision plate reader (Perkin Elmer) 680 nm excitation, 520-620 nm emission. Data was graphed and IC50s calculated using Excel Fit (Microsoft).

[2] = molecular target: T1, His-tagged kinase domain of CSF-1R (amino acids 568-912); test: Assay 2: CSF1R in-vitro AlphaScreen assay; type: biochemical; settings: phosphorylation of biotinylated pEY substrate; 0.46 nM CSF-1R, 12 mM ATP mix
Procedure: Assay 2: CSF1R in-Vitro AlphaScreen Assay
Activity of purified CSF-1R was determined in-vitro using an Amplified Luminescent Proximity Homogeneous Assay (ALPHA) (Perkin Elmer, Mass.), which measures phosphorylation of CSF-1R substrate, biotinylated poly-glutamine-tyrosine peptide (pEY-HTRF CisBio 61GT0BLD), as described below. The His-tagged kinase domain of CSF-1R (i.e., amino acids 568-912, GeneBank ID NM_005211) was purified from baculovirus infected SF+Express insect cells (1.4×10^6 cells/ml), French pressed and chromatographed through subsequent QIAgen Ni-NTA, Superflow Mono Q HR 10/10, and Superdex 200 SEC columns. Typical yield was 322 ug/l of cell pellet at >95% purity. The phosphorylation of the CSF-1R substrate in the presence and absence of the compound of interest was determined. Briefly, 5 ul of Enzyme/Substrate/adenosine triphosphate (ATP) mix consisting of 0.46 nM of purified CSF-1R, 12 nM pEY substrate, and 12 mM ATP in 1.2× buffer was preincubated with 2 ul of compound for 20 minutes at 25° C. Reactions were initiated with 5 ul of Metal mix consisting of 24 mM MgCl2 in 1.2× buffer and incubated at 25° C. for 90 minutes and reactions were stopped by addition of 5 ul of Detection mix consisting of 20 mM HEPES, 102 mM ethylenediamine tetraacetic acid, 1.65 mg/ml BSA, 136 mM NaCl, 40 ug/ml Streptavidin donor beads (Perkin Elmer, Mass., Catalog #6760002), and 40 ug/ml phosphotyrosine-specific antibody coated acceptor beads (Perkin Elmer, Mass., Catalog #6760620). Plates were incubated at 25° C. for 18 hours in the dark. Phosphorylated substrate was detected by an EnVision plate reader (Perkin Elmer) 680 nm excitation, 520-620 nm emission. Data was graphed and IC50s calculated using Excel Fit (Microsoft). […] For example the following results were obtained in an assay substantially similar to one or other of the assays described hereinabove: […]

SMILES: CCOc1cc2ncc(C(N)=O)c(Nc3ccc(F)cc3F)c2cc1C1=CCNCC1 [Example 39, 4-[(2,4-Difluorophenyl)amino]-7-ethoxy-6-(1,2,3,6-tetrahydropyridin-4-yl)quinoline-3-carboxamide]
- IC50 [1]: < 3 nM

SMILES: CCOc1cc2ncc(C(N)=O)c(Nc3ccc(F)cc3F)c2cc1C1CCNCC1 [Example 40, 4-[(2,4-Difluorophenyl)amino]-7-ethoxy-6-piperidin-4-ylquinoline-3-carboxamide]
- IC50 [1]: 7 nM

SMILES: CCOc1cc2ncc(C(N)=O)c(Nc3ccc(F)cc3F)c2cc1C1=CCN(C(C)=O)CC1 [Example 41, 6-(1-Acetyl-1,2,3,6-tetrahydropyridin-4-yl)-4-[(2,4-difluorophenyl)amino]-7-ethoxyquinoline-3-carboxamide]
- IC50 [1]: 14 nM

SMILES: CCOc1cc2ncc(C(N)=O)c(Nc3ccc(C)cc3F)c2cc1C1CCN(C)CC1 [Example 42, 7-Ethoxy-4-[(2-fluoro-4-methylphenyl)amino]-6-(1-methylpiperidin-4-yl)quinoline-3-carboxamide]
- IC50 [1]: 5 nM

SMILES: CCOc1cc2ncc(C(N)=O)c(Nc3ccc(F)cc3F)c2cc1C1CCN(C)CC1 [Example 43, 4-[(2,4-Difluorophenyl)amino]-7-ethoxy-6-(1-methylpiperidin-4-yl)quinoline-3-carboxamide]
- IC50 [1]: < 3.9 nM

SMILES: CCOc1cc2ncc(C(N)=O)c(Nc3cccc(Cl)c3F)c2cc1C1CCN(C)CC1 [Example 44, 4-[(3-Chloro-2-fluorophenyl)amino]-7-ethoxy-6-(1-methylpiperidin-4-yl)quinoline-3-carboxamide]
- IC50 [1]: < 3 nM

SMILES: CCOc1cc2ncc(C(N)=O)c(Nc3cccc(Cl)c3Cl)c2cc1C1CCN(C)CC1 [Example 45, 4-[(2,3-Dichlorophenyl)amino]-7-ethoxy-6-(1-methylpiperidin-4-yl)quinoline-3-carboxamide]
- IC50 [1]: < 3 nM

SMILES: CCOc1cc2ncc(C(N)=O)c(Nc3ccc(F)cc3F)c2cc1C1CCN(C(C)C)CC1 [Example 46, 4-[(2,4-Difluorophenyl)amino]-7-ethoxy-6-(1-isopropylpiperidin-4-yl)quinoline-3-carboxamide]
- IC50 [1]: 18 nM
- IC50 [2]: 22 nM

SMILES: CCOc1cc2ncc(C(N)=O)c(Nc3ccc(C)cc3F)c2cc1C1CCN(C(C)C)CC1 [Example 47, 7-Ethoxy-4-[(2-fluoro-4-methylphenyl)amino]-6-(1-isopropylpiperidin-4-yl)quinoline-3-carboxamide]
- IC50 [1]: 4 nM

SMILES: CCOc1cc2ncc(C(N)=O)c(Nc3cc(C)ccc3F)c2cc1C1CCN(C(C)C)CC1 [Example 48, 7-Ethoxy-4-[(2-fluoro-5-methylphenyl)amino]-6-(1-isopropylpiperidin-4-yl)quinoline-3-carboxamide]
- IC50 [1]: 3 nM

SMILES: COc1cc2ncc(C(N)=O)c(Nc3ccc(C)cc3F)c2cc1C1CCN(C)CC1 [Example 49, 4-[(2-Fluoro-4-methylphenyl)amino]-7-methoxy-6-(1-methylpiperidin-4-yl)quinoline-3-carboxamide]
- IC50 [1]: 7 nM

SMILES: COc1cc2ncc(C(N)=O)c(Nc3cccc(Cl)c3F)c2cc1C1CCN(C)CC1 [Example 50, 4-[(3-Chloro-2-fluorophenyl)amino]-7-methoxy-6-(1-methylpiperidin-4-yl)quinoline-3-carboxamide]
- IC50 [1]: 6 nM

SMILES: COc1cc2ncc(C(N)=O)c(Nc3ccc(F)cc3F)c2cc1C1CCN(C)CC1 [Example 51, 4-[(2,4-Difluorophenyl)amino]-7-methoxy-6-(1-methylpiperidin-4-yl)quinoline-3-carboxamide]
- IC50 [1]: 10 nM

SMILES: COc1cc2ncc(C(N)=O)c(Nc3ccc(C)cc3F)c2cc1C1CCN(C(C)C)CC1 [Example 52, 4-[(2-Fluoro-4-methylphenyl)amino]-6-(1-isopropylpiperidin-4-yl)-7-methoxyquinoline-3-carboxamide]
- IC50 [2]: 14 nM

SMILES: COc1cc2ncc(C(N)=O)c(Nc3ccc(F)cc3F)c2cc1C1CCN(C(C)C)CC1 [Example 53, 4-[(2,4-Difluorophenyl)amino]-6-(1-isopropylpiperidin-4-yl)-7-methoxyquinoline-3-carboxamide]
- IC50 [2]: 32 nM

SMILES: COc1cc2ncc(C(N)=O)c(Nc3cccc(Cl)c3F)c2cc1C1CCN(C(C)C)CC1 [Example 54, 4-[(3-Chloro-2-fluorophenyl)amino]-6-(1-isopropylpiperidin-4-yl)-7-methoxyquinoline-3-carboxamide]
- IC50 [2]: 8 nM

SMILES: COc1cc2ncc(C(N)=O)c(Nc3ccc(F)cc3F)c2cc1C1CCN(C(C)=O)CC1 [Example 55, 6-(1-Acetylpiperidin-4-yl)-4-[(2,4-difluorophenyl)amino]-7-methoxyquinoline-3-carboxamide]
- IC50 [1]: 15 nM

SMILES: CCOc1cc2ncc(C(N)=O)c(Nc3ccc(C)cc3F)c2cc1C1CCN(C(C)=O)CC1 [Example 56, 6-(1-Acetylpiperidin-4-yl)-7-ethoxy-4-[(2-fluoro-4-methylphenyl)amino]quinoline-3-carboxamide]
- IC50 [2]: 30 nM

SMILES: CCOc1cc2ncc(C(N)=O)c(Nc3ccc(C)cc3F)c2cc1C1CCN(C(=O)CCOC)CC1 [Example 57, 7-Ethoxy-4-[(2-fluoro-4-methylphenyl)amino]-6-[1-(3-methoxypropanoyl)piperidin-4-yl]quinoline-3-carboxamide]
- IC50 [2]: 71 nM

SMILES: CCOc1cc2ncc(C(N)=O)c(Nc3ccc(C)cc3F)c2cc1C1CCN(C(=O)[C@@H](C)O)CC1 [Example 58, 7-Ethoxy-4-[(2-fluoro-4-methylphenyl)amino]-6-{1-[(2R)-2-hydroxypropanoyl]piperidin-4-yl}quinoline-3-carboxamide]
- IC50 [2]: 52 nM

SMILES: CCOc1cc2ncc(C(N)=O)c(Nc3ccc(F)cc3F)c2cc1-c1ccc(=O)[nH]c1 [Example 59, 4-[(2,4-Difluorophenyl)amino]-7-ethoxy-6-(6-oxo-1,6-dihydropyridin-3-yl)quinoline-3-carboxamide]
- IC50 [1]: 7 nM

SMILES: COc1cc2ncc(C(N)=O)c(Nc3ccc(C)cc3F)c2cc1C1CCN(CCO)CC1 [Example 60, 4-[(2-Fluoro-4-methylphenyl)amino]-6-[1-(2-hydroxyethyl)piperidin-4-yl]-7-methoxyquinoline-3-carboxamide hydrochloride]
- IC50 [2]: 4 nM
